Experimental data taken from US20220411422A1, “ERBB RECEPTOR INHIBITORS” (Dizal (Jiangsu) Pharmaceutical Co., Ltd., priority 2018, published 2022).

Assays:
[1] = test system: Human Pgp/BCRP transporter; experiment: Human Pgp/BCRP transporter substrate assessment; format: in vitro ADME
[2] = target: T1, wild type EGFR (Homo sapiens, UniProt P00533); experiment: pEGFR cellular activity in A431 cell line; format: cell-based
T1 construct: which expresses wild type EGFR protein; endogenous in cells; host or cells: A431
T1 sequence (P00533 25-1210): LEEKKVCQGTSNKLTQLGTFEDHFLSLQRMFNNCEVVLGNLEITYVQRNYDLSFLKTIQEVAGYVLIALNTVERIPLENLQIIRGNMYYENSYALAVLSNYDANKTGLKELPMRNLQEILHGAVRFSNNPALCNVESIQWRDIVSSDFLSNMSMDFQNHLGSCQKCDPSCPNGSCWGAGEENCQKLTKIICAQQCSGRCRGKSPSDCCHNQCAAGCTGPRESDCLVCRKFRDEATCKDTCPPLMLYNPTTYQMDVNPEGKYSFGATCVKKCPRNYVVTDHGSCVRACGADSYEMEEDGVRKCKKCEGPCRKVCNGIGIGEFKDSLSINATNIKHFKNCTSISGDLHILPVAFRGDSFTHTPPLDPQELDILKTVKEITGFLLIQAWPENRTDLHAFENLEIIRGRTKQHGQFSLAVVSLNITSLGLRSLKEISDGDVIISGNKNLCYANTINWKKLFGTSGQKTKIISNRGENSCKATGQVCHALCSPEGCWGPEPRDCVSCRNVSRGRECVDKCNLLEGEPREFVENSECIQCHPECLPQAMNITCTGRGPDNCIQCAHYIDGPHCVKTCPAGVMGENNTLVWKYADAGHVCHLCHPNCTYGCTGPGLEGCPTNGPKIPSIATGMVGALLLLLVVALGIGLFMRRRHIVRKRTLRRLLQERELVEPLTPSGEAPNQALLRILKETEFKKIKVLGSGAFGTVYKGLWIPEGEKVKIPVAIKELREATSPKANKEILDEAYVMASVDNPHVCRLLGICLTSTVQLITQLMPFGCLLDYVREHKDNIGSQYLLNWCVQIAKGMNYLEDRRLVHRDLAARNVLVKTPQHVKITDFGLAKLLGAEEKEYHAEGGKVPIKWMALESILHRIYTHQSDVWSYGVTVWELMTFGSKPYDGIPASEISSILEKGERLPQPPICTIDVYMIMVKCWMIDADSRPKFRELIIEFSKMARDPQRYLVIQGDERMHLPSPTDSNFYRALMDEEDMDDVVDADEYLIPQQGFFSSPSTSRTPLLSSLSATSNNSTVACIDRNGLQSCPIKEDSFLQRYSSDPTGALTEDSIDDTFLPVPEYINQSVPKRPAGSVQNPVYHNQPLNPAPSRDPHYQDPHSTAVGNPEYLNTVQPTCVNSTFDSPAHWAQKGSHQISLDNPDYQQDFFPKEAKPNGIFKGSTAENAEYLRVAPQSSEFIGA
Experimental: A compound's activity of inhibition for EGFR WT can be evaluated with NCI-H838 (ATCC® CRL-5844™) and A431 cell line (the epidermoid carcinoma cell line A-431), which expresses wild type EGFR protein as the count screening to define the selectivity of the compound.
The compounds' inhibition of target modulation were determined as follows: NCI-H838 cells and A431 cells were sorted in 96 well plates (20000 cells/well) with the DMEM medium containing 1% FBS overnight and then treated with tested compounds at a series of concentrations (3 μM, 0.3 μM, 0.1 μM, 0.03 μM, 0.01 μM, 0.003 μM, 0.001 μM, 0.0001 μM). The plates were incubated for 4 h at 37° C. with 5% CO2 followed by the stimulation of recombinant hEGF (100 ng/ml for 10 Min, RD, Cat #236-EG) and then the EGFR (Y1068) phosphorylation level of cells in each well were measured with MSD Kit (MULTI-SPOT®96 4-Spot HB Prototype EGFR Triplex […]: pEGFR (Tyr1068), pEGFR (Tyr1173), Total EGFR (Cat #N45ZB-1). The assay is a electrochemiluminescent method (MESO SCALE DISCOVERY) for determining both phosphorylated and total EGFR of cells with an MSD SECTOR® Imager and then the ratio of p-EGFR/total EGFR can be generated by the machine. The percentage of inhibition was used the formula: % inhibition=100×[1−(ratio of sample well−ratio of Min ctrl well)/(ratio of Max−Ratio of Min ctrl well)]. […]

[3] = Clinical plasma and CSF PK in HER2+ MBC patients; format: in vivo, human
Experimental: The plasma concentration of Compound 6 at the dosage of 50 to 200 mg following single dose or multiple doses were tested. […] In patients with BM, averaged Kpuu,CSF was around 1.82 and 0.78 for Compound 6 and its active metabolite Compound 16, respectively.

Question: For `COc1cc(O[C@H]2CCN(C)CC2(F)F)c2c(Nc3ccc(Oc4ccn5ncnc5c4)c(C)c3)ncnc2c1` (single isomer, unassigned) [Compound 6], which “Human Pgp/BCRP transporter substrate” value [1] is on record?
Answer: No

Question: And the IC50 [2]?
Answer: 1460 nM

Question: What about the Kp uu ([3]; human, CSF, oral, patients with BM, read-out: averaged Kpuu,CSF) of the same compound?
Answer: ~1.82

Question: What about the half-life ([3]; human, plasma, patients, single oral dose, read-out: terminal half-life (converted)) of the same compound?
Answer: ~18 h

Question: And the accumulation ([3]; patients, 15-day repeat dosing)?
Answer: Around 2 fold

Question: What about the “drug exposure versus dose” value ([3]; patients, 50 to 200 mg) of the same compound?
Answer: increased in a dose proportional manner

Question: And the “free trough concentration versus pHER2 IC50 of BT474cl cells” value ([3]; patients, doses ≥100 mg bid)?
Answer: above pHER2 IC50 of BT474cl cells
